Measured values reported in patent US6054114A, “Organometallic ligands for the localization and quantification of amyloid in vivo and in vitro” (priority 1997, dated 2000).
Like-named read-outs stand apart in the source and are kept apart here.

Tests used:
[1] = molecular target: T1, β1-40 amyloid fibrils (Homo sapiens, UniProt P05067); test: Competitive displacement of labeled complexes 3 or 6 from β1-40 fibrils; type: binding; conditions: 25° C., pH 7.4, mean (±S.D.)
T1 construct: Aggregated β1-40 peptides (Bachem, Torrance, Calif); purchased Bachem, Torrance, Calif
Procedure: Dissociation constants, IC50 and inhibition constants were determined. Aggregated β1-40 peptides (Bachem, Torrance, Calif.; peptide concentrations were determined by amino acid analysis) were prepared by stirring supersaturated solutions of peptide (100 μM) in the standard buffer (10 mM NaH2 PO4, pH 7.4) at room temperature for at least 72 h and remained stirring while aliquots were taken. […] The solution was briefly vortexed and allowed to equilibrate at room temperature for 2 h. The solution was centrifuged for 1 min at 14,000 rpm (16,000 g) and the amount of the labeled ligand bound ([B]) to fibrils was obtained by measuring the radioactivity of the pellets or calculated using the equation [B] =[T] - [F] where [F] is the concentration of the labeled ligand in the supernatant (i.e., amount unbound or free) and [T] is the total amount of the labeled ligand added. A Scatchard plot was used to obtain [B]max (apparent maximum amount of the labeled ligand bound to fibrils) and Kd. (Freifelder, D., Physical Biochemistry: Applications to Biochemistry and Molecular Biology, 2nd ed.; W. H. Freeman & Co., N. Y. Chapter 10, p. 654 (1982)). The [B]max was based on total protein concentration. […] The IC50 value was used to calculate the inhibition constant Ki. (Cheng et al., Biochem. Pharmacol. 22:3099-3108 (1973)).
The relative affinities (Ki 's) of the free bipyridyl ligands were determined by displacement of complexes 3 or 6 (see Table 1). […] The stoichiometry of saturation, as estimated by Scatchard analysis of the binding curves, differed slightly, with 2.7 moles of 3 and 1.6 moles of 6 bound per mole of β1-40.

[2] = Peptide solubility; type: physicochemical; conditions: 10 mm nah2po4 buffer, pH 7.4
[3] = [Tc(CNtBu)4 (bpcg)]^+ (6) as labeled ligand, read-out: Inhibition constant (Ki) for β1-40 fibrils
[4] = [Tc(CNtBu)4 (bpcr)]^+ (3) as labeled ligand, read-out: Inhibition constant (Ki) for β1-40 fibrils

T1 sequence (P05067 672-711 limits assumed): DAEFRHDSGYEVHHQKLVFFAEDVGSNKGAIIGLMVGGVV

Row | Molecule | Ki ([1]; Inhibition constant (Ki) for β1-40 fibrils, [Tc(CNtBu)4 (bpcg)]^+ (6) as labeled ligand) [nM] | Ki ([1]; Inhibition constant (Ki) for β1-40 fibrils, [Tc(CNtBu)4 (bpcr)]^+ (3) as labeled ligand) [nM] | Ki [1, 3] [nM] | Ki [1, 4] [nM] | solubility [2]
1 | Nc1c(/N=N/c2ccc(-c3ccc(/N=N/c4cc(S(=O)(=O)O)c5ccccc5c4N)cc3)cc2)cc(S(=O)(=O)O)c2ccccc12 [Congo Red (1), Congo Red, reference compound] | 560 | 460 | – | – | –
2 | Nc1c(N=Nc2ccc(-c3ccc(N=Nc4cc(S(=O)(=O)O)c5ccccc5c4N)cn3)nc2)cc(S(=O)(=O)O)c2ccccc12 [compound 2, Bipyridyl-Congo Red] | – | – | 480 | 510 | –
3 | O=C(O)c1cc(N=Nc2ccc(-c3ccc(N=Nc4ccc(O)c(C(=O)O)c4)cn3)nc2)ccc1O [compound 5, bipyridal-Chrysamine G] | – | – | 420 | 760 | –
4 | β1-40: β1-40 amyloid peptide (Bachem), C-terminally truncated relative of Aβ1-42 | – | – | – | – | ca. 1 μM
